Reference: patent US20070244108A1 (priority 2004, published 2007)

Assays:
Human 11β HSD1 = molecular target: T1, Human 11β HSD1 (Homo sapiens, UniProt P28845); test: 11β HSD1 cortisol radioimmunoassay (RIA), human hepatic microsomes; format: biochemical; settings: 10 μM compound; typical sd ± 5%, N=2
T1 construct: human hepatic microsomes were obtained from XenoTech, product H0610/Lot 0210078; tissue XenoTech H0610/Lot 0210078; host or cells: human liver (hepatic microsomes)
Protocol: Standard Operating Procedure for the 11β-Hydroxysteroid Dehydrogenase Type 1 cortisol Radioimmunoassay (11β HSD1 Cortisol RIA).
Prepare 10 mM stock solutions in 100% DMSO at 100 times the required assay concentration. Dilute into assay buffer 1 in 25. Also dilute neat DMSO 1 in 25 into assay buffer for controls.
Dilute this 1 in 50 into assay buffer.
Mix these 3 solutions 1:1:1 to make a solution of sufficient volume for 25 μl additions to each sample.
Dilute stock 20 mg/ml solution 1 in 100 with assay buffer.
Dilute stock antibody solution to 17 μg/ml in antibody binding buffer.
To a u-bottom polypropylene 96 well plate add:
25 μl compound dilution or diluted DMSO to controls, NSB's and blanks
10 μl […] in DMSO (enzyme stop solution) to blanks
25 μl substrate mixture to all samples
50 μl diluted microsomes to all samples
Incubate plate for 30 min at 37° C. shaking
Add 10 μl enzyme stop solution to all wells except the blanks
Add 100 μl antibody solution to all wells except the NSB's, add antibody binding buffer to these wells
Incubate at 37° C. for 1 h
Add 50 μl/well charcoal solution and mix with an 8-channel pipette (4-5 aspirations)
Centrifuge at 4° C., 2000×g for 15 min
Transfer 100 μl supernatant into an Optiplate, also add 25 μl substrate mixture to 2 empty wells to indicate counting efficiency
Add 200 μl Microscint-40 to all wells and count on a Topcount
The 11β HSD1 enzyme assay was carried out following the standard operating procedure described above in u-bottom polypropylene 96 well plates or 1.5 ml Eppendorf tubes as indicated for each experiment. Subsequent to stopping the enzyme reaction, 100 μl antibody prepared in buffer 3 unless otherwise indicated was added to test samples and 100 μl buffer 3 was added to the NSB samples. […] Aliquots of the supernatant (100 μl) were transferred to an Optiplate and counted on the Topcount in 150-200 μl Microscint 40. In some experiments, aliquots of supernatant were transferred to scintillation vials and counted on the Tricarb LSC in 5 ml Ultima Gold scintillant.

T1 sequence (P28845 whole entry): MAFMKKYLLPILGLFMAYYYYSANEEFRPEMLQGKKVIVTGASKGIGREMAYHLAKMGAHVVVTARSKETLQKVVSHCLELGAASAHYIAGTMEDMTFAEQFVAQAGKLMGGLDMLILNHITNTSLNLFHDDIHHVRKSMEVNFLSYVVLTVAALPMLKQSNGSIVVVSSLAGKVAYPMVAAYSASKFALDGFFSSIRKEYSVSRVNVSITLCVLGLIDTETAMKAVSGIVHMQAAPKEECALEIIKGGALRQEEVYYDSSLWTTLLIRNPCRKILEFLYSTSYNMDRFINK

Compound	melting point	inhibition at 10 µM (Human 11β HSD1)
CCCc1ccc(S(=O)(=O)NN2CCOCC2)cc1 [STX586, N-Morpholin-4-yl-4-propyl-benzenesulfonamide]	150 to 152 °C	> 35%
CCCc1ccc(S(=O)(=O)NCCc2ncc[nH]2)cc1 [STX578, N-[2-(4H-Imidazol-2-yl)-ethyl]-4-propylbenzenesulfonamide]	–	> 35%
CCCc1ccc(S(=O)(=O)NN2CCN(C)CC2)cc1 [STX551, N-(4-Methylpiperazin-1-yl)-4-propylbenzenesulfonamide]	153 to 154 °C	> 35%
